# From patent publication US8742098B2, “Inhibitors of Bruton's tyrosine kinase” (Hoffmann-La Roche Inc., priority 2011, dated 2014)
# System: B cell receptor-mediated activation of B cells in human blood
# Assay: Inhibition of B cell activation in whole blood measured by CD69 expression
# Format: cell-based
# Details: anti-IgM stimulation, 20 hours, CD69-positive cells that are also CD20-positive, read-out: HWB IC50
# Protocol: A procedure to test the ability of Btk inhibitors to suppress B cell receptor-mediated activation of B cells in human blood is as follows:
# Human whole blood (HWB) is obtained from healthy volunteers, with the following restrictions: 24 hr drug-free, non-smokers. Blood is collected by venipuncture into Vacutainer tubes anticoagulated with sodium heparin. Test compounds are diluted to ten times the desired starting drug concentration in PBS (20×), followed by three-fold serial dilutions in 10% DMSO in PBS to produce a nine point dose-response curve. 5.5 μl of each compound dilution is added in duplicate to a 2 ml 96-well V bottom plate (Analytical Sales and Services, #59623-23); 5.5 μl of 10% DMSO in PBS is added to control and no-stimulus wells. HWB (100 μl) is added to each well, and after mixing the plates are incubated at 37 C, 5% CO2, 100% humidity for 30 minutes. Goat F(ab′)2 anti-human IgM (Southern Biotech, #2022-14) (10 μl of a 500 μg/ml solution, 50 μg/ml final concentration) is added to each well (except the no-stimulus wells) with mixing and the plates are incubated for an additional 20 hours.
# At the end of the 20 hour incubation, samples are incubated with florescent-probe-labeled anti-bodies (15 μl PE Mouse anti-Human CD20, BD Pharmingen, #555623, and/or 20 ul APC Mouse anti-Human CD69, BD Pharmingen #555533) for 30 minutes, at 37 C, 5% CO2, 100% humidity. Included are induced control, unstained and single stains for compensation adjustments and initial voltage settings. Samples are then lysed with 1 ml of 1× Pharmingen Lyse Buffer (BD Pharmingen #555899), and plates are centrifuged at 1800 rpm for 5 minutes. Supernatants are removed via suction and the remaining pellets are lysed again with another 1 ml of 1× Pharmingen Lyse Buffer, and plates are spun down as before. Supernatants are aspirated and remaining pellets are washed in FACs buffer (PBS+1% FBS). After a final spin, the supernantants are removed and pellets are resuspended in 180 μl of FACs buffer. Samples are transferred to a 96 well plate suitable to be run on the HTS 96 well system on the BD LSR II flow cytometer.
# Using appropriate excitation and emission wavelengths for the fluorophores used, data are acquired and percent positive cell values are obtained using Cell Quest Software. Results are initially analyzed by FACS analysis software (Flow Jo). […] The IC50 values are calculated using XLfit software version 3, equation 201.
row,IC50 [nM],SMILES
1,2270,"CN1CCC(c2ccc(Nc3nc(-c4cccc(-n5ncc6cc(C(C)(C)C)cc(F)c6c5=O)c4CO)cn4ccnc34)cc2)CC1 [Compound I-8, 6-tert-Butyl-8-fluoro-2-(2-hydroxymethyl-3-{8-[4-(1-methyl-piperidin-4-yl)-phenylamino]-imidazo[1,2-a]pyrazin-6-yl}-phenyl)-2H-phthalazin-1-one]"
2,890,"CC(C)(C)c1cc(F)c2c(=O)n(-c3cccc(-c4cnnc(Nc5ccc(C(=O)N6CCOCC6)cn5)c4)c3CO)ncc2c1 [Compound I-5, 6-tert-Butyl-8-fluoro-2-(2-hydroxymethyl-3-{6-[5-(morpholine-4-carbonyl)-pyridin-2-ylamino]-pyridazin-4-yl}-phenyl)-2H-phthalazin-1-one]"
3,77,"CC(C)(C)c1cc(F)c2c(=O)n(-c3cccc(-c4cc(Nc5ccc(C(=O)N6CCOCC6)cn5)c5nccn5n4)c3CO)ncc2c1 [Compound I-2, 6-tert-Butyl-8-fluoro-2-(2-hydroxymethyl-3-{8-[5-(morpholine-4-carbonyl)-pyridin-2-ylamino]-imidazo[1,2-b]pyridazin-6-yl}-phenyl)-2H-phthalazin-1-one]"
4,13,"CN1CCN(Cc2ccc(Nc3cc(-c4cccc(-n5ncc6cc(C(C)(C)C)cc(F)c6c5=O)c4CO)nn4ccnc34)nc2)CC1 [Compound I-4, 6-tert-Butyl-8-fluoro-2-(2-hydroxymethyl-3-{8-[5-(4-methyl-piperazin-1-ylmethyl)-pyridin-2-ylamino]-imidazo[1,2-b]pyridazin-6-yl}-phenyl)-2H-phthalazin-1-one]"
5,1040,"CC(C)(C)c1cc(F)c2c(=O)n(-c3cccc(-c4cc(Nc5ccc(C(=O)N6CCOCC6)cc5)c5nccn5c4)c3CO)ncc2c1 [Compound I-9, 6-tert-Butyl-8-fluoro-2-(2-hydroxymethyl-3-{8-[4-(morpholine-4-carbonyl)-phenylamino]-imidazo[1,2-a]pyridin-6-yl}-phenyl)-2H-phthalazin-1-one]"
6,72,"CN1CCC(c2ccc(Nc3cc(-c4cccc(-n5ncc6cc(C(C)(C)C)cc(F)c6c5=O)c4CO)cn4ccnc34)nc2)CC1 [Compound I-11, 6-tert-Butyl-8-fluoro-2-{2-hydroxymethyl-3-[8-(1′-methyl-1′,2′,3′,4′,5′,6′-hexahydro-[3,4′]bipyridinyl-6-ylamino)-imidazo[1,2-a]pyridin-6-yl]-phenyl}-2H-phthalazin-1-one]"
7,2500,"CC(C)(C)c1cc(F)c2c(=O)n(-c3cccc(-c4cc(Nc5ccc(C(=O)N6CCOCC6)cn5)ncn4)c3CO)ncc2c1 [Compound I-12, 6-tert-Butyl-8-fluoro-2-(2-hydroxymethyl-3-{6-[5-(morpholine-4-carbonyl)-pyridin-2-ylamino]-pyrimidin-4-yl}-phenyl)-2H-phthalazin-1-one]"
8,142,"CC(C)(C)c1cc(F)c2c(=O)n(-c3cccc(-c4cc(Nc5ccc(C(=O)N6CCOCC6)cn5)c5nccn5c4)c3CO)ncc2c1 [Compound I-10, 6-tert-Butyl-8-fluoro-2-(2-hydroxymethyl-3-{8-[5-(morpholine-4-carbonyl)-pyridin-2-ylamino]-imidazo[1,2-a]pyridin-6-yl}-phenyl)-2H-phthalazin-1-one]"
9,350,"CC(C)(C)c1cc(F)c2c(=O)n(-c3cccc(-c4cc(Nc5ccc(C(=O)N6CCOCC6)cn5)c5ncnn5c4)c3CO)ncc2c1 [Compound I-1, 6-tert-Butyl-8-fluoro-2-(2-hydroxymethyl-3-{8-[5-(morpholine-4-carbonyl)-pyridin-2-ylamino]-[1,2,4]triazolo[1,5-a]pyridin-6-yl}-phenyl)-2H-phthalazin-1-one]"
10,> 5000,"CC(C)(C)c1cc(F)c2c(=O)n(-c3cccc(-c4cc(Nc5ccc(C(=O)N6CCOCC6)cn5)c5ncccc5c4)c3CO)ncc2c1 [Compound I-13, 6-tert-Butyl-8-fluoro-2-(2-hydroxymethyl-3-{8-[5-(morpholine-4-carbonyl)-pyridin-2-ylamino]-quinolin-6-yl}-phenyl)-2H-phthalazin-1-one]"
11,40,"CC(C)N1CCN(c2ccc(Nc3cc(-c4cccc(-n5ncc6cc(C(C)(C)C)cc(F)c6c5=O)c4CO)nn4ccnc34)nc2)CC1 [Compound I-3, 6-tert-Butyl-8-fluoro-2-(2-hydroxymethyl-3-{8-[5-(4-isopropyl-piperazin-1-yl)-pyridin-2-ylamino]-imidazo[1,2-b]pyridazin-6-yl}-phenyl)-2H-phthalazin-1-one]"
12,112,"CC(C)(C)c1cc(F)c2c(=O)n(-c3cccc(-c4cn5ccnc5c(Nc5ccc(C(=O)N6CCOCC6)cc5)n4)c3CO)ncc2c1 [Compound I-7, 6-tert-Butyl-8-fluoro-2-(2-hydroxymethyl-3-{8-[4-(morpholine-4-carbonyl)-phenylamino]-imidazo[1,2-a]pyrazin-6-yl}-phenyl)-2H-phthalazin-1-one]"
13,480,"CC(C)(C)c1cc(F)c2c(=O)n(-c3cccc(-c4ccnc(Nc5ccc(C(=O)N6CCOCC6)cn5)c4)c3CO)ncc2c1 [Compound I-6, 6-tert-Butyl-8-fluoro-2-(2-hydroxymethyl-3-{2-[5-(morpholine-4-carbonyl)-pyridin-2-ylamino]-pyridin-4-yl}-phenyl)-2H-phthalazin-1-one]"
